Data from patent US20100021895A1, “Vectors for Inducing Homozygous Mutations and Methods of Using Same” (priority 2006, published 2010).

System: mouse embryonic stem cell clones, each containing a neomycin resistance gene (Neo) inserted by the GTR1.3 gene trap retrovirus
Assay: Carcinogen-induced LOH: frequency of colony formation in 2.0 mg/ml G418
Type: cell-based
Conditions: for fold increase of frequency of colony formation: 2 mg/ml G418 0.25 mM HU
Protocol: Carcinogen-induced LOH was measured in a panel of 53 mouse embryonic stem cell clones, each containing a neomycin resistance gene (Neo) inserted into a different cellular gene (FIG. 9) by the GTR1.3 gene trap retrovirus. Gene entrapment by GTR1.3 involves selection for inserted Neo sequences that can splice to the 3′ ends of cellular genes (Lin et al.,). The disrupted genes were identified by sequencing Neo-gene fusion transcripts and were localized on the mouse genome. Previous studies have shown that cells homozygous for GTR1.3-induced mutations can be selected from heterozygous cells simply by selecting for resistance to higher concentrations of G418, a method first shown to select for homozygous mutations induced by gene targeting (15). Mitotic recombination appears to be the preferred mechanism of spontaneous LOH involving Neo genes inserted in ES cells (17) and LOH involving other genes and cell types in vivo (12, 13). LOH doubles the number of Neo genes per cell and thus allows moderately resistant cells to acquire resistance to higher concentrations of G418. The frequencies of spontaneous LOH measured at the 53 different sites ranged from 1.3×10^−5 to 1.2×10^−4 (Table 3), similar to those reported for other inserted neomycin resistance genes (15, 17) in ES cells and for loci such as TK and APRT in other cell types (12, 13).
A variety of chemical agents were tested for their ability to enhance the frequencies at which mutant cells survive in 2.0 mg/ml G418. Methyl-nitrosurea (MNU) is an alkylating agent that produces a variety of mono-methylated DNA adducts, hydroxyurea (HU) stalls DNA replication complexes, doxorubicin interferes with DNA synthesis, methothrexate is a competitive inhibitor of dihydrofolate reductase but is not genotoxic, diepoxybutane and mitomycin C induce inter-strand DNA crosslinks, UV irradiation causes intra- and inter-strand pyrimidine dimmers, and ethidium bromide intercalates between DNA strands to damage DNA (For additional information about these agents see http://toxnet.nlm.nih.gov and http://lisntweb.swan.ac.uk/cmgt/index.htm). […] The fold-increase for MNU and HU ranged from 39-123 and 18-68, respectively (Table 3). The optimal concentrations of each agent to stimulate colony formation with minimal toxicity (<5% loss of cell viability) were determined in advance (FIG. 13). […] Each of these agents was tested two or more times on at least 25 entrapment lines.
Serially diluted cells were plated onto 150 mm plates containing drug-free media and allowed to attach overnight. Unattached cells were removed and media containing the indicated concentrations of methyl-nitrosourea, hydroxyurea, ethidium bromide, doxorubicin, methotrexate, diepoxybutane, or mitomycin C was put onto cells for 4 hours (or cells were exposed to ultraviolet light in the absence of media and allowed to recover in drug-free media for 4 hours). Cells were then rinsed twice with drug-free media and selection media containing 0.0, 0.3, or 2.0 mg/ml G418 was put onto cells. After 12 days of selection, the number of colonies surviving was counted and the frequency of colony formation was determined by dividing the number of colonies obtained from 2.0 mg/ml G418 selection to that obtained from parallel experiments with 0.3 mg/ml G418 selection. TK gene loss was assessed following selection in media containing 2 μg/ml gancyclovir.
Table 3. The frequency of colony formation in high concentrations of G418. The frequency of colony formation is listed for all 53 clones examined. Frequency was determined by dividing the number of colonies surviving 2.0 mg/ml G418 selection to the number surviving parallel experiments with 0.3 mg/ml G418 selection, and is the average of at least 3 independent experiments for each clone. Standard deviations, which ranged from 5 to 70% of the mean values, have been omitted for clarity. […]

NC(=O)NO [HU, hydroxyurea]
fold-increase of colonies surviving in high G418, range over clones (0.25 mM HU, Table 3 clones): 18-68 fold
number of colonies surviving in high G418 (0.5 mM MNU or 0.25 mM HU (FIG. 10)): dramatically increased
fold increase of frequency of colony formation (clone b2p1-a5 (12C3)): (+35-fold)
fold increase of frequency of colony formation (clone b2p1-a9 (2H1)): (+36-fold)
fold increase of frequency of colony formation (clone b2p1-b4 (9E1)): (+32-fold)
fold increase of frequency of colony formation (clone b2p1-b9 (4B1)): (+38-fold)
fold increase of frequency of colony formation (clone b2p1-c6 (19A)): (+22-fold)
fold increase of frequency of colony formation (clone b2p1-d3 (19C1)): (+28-fold)
fold increase of frequency of colony formation (clone b2p1-d8 (4D2.3)): (+40-fold)
fold increase of frequency of colony formation (clone b2p1-d9 (7E3)): (+38-fold)
fold increase of frequency of colony formation (clone b2p1-d10 (9A1)): (+19-fold)
fold increase of frequency of colony formation (clone b2p1-e3 (4D2.3)): (+32-fold)
fold increase of frequency of colony formation (clone b2p1-e10 (19C1)): (+25-fold)
fold increase of frequency of colony formation (clone b2p1-f3 (17E1.3)): (+47-fold)
fold increase of frequency of colony formation (clone b2p1-f10 (3F2.1)): (+33-fold)
fold increase of frequency of colony formation (clone b2p1-f12 (1H5)): (+25-fold)
fold increase of frequency of colony formation (clone b2p1-h1 (7A2)): (+21-fold)
fold increase of frequency of colony formation (clone b2p1-h5 (1H5)): (+42-fold)
fold increase of frequency of colony formation (clone b2p1-h8 (6A3.3)): (+42-fold)
fold increase of frequency of colony formation (clone b3p1-h1 (18E2)): (+42-fold)
fold increase of frequency of colony formation (clone b3p3-a4 (4A5)): (+33-fold)
fold increase of frequency of colony formation (clone b3p3-a9 (4A5)): (+18-fold)
fold increase of frequency of colony formation (clone b3p3-b6 (3F1)): (+18-fold)
fold increase of frequency of colony formation (clone b3p3-c8 (14A3)): (+32-fold)
fold increase of frequency of colony formation (clone b3p3-c12 (5G2)): (+20-fold)
fold increase of frequency of colony formation (clone b3p3-d4 (1C3)): (+28-fold)
fold increase of frequency of colony formation (clone b3p3-d8 (1C2)): (+68-fold)
fold increase of frequency of colony formation (clone b3p3-d9 (4E2)): (+22-fold)
fold increase of frequency of colony formation (clone b3p3-g6 (10C2)): (+29-fold)
fold increase of frequency of colony formation (clone b3p3-g10 (4E1)): (+24-fold)
fold increase of frequency of colony formation (clone b3p3-h2 (19C1)): (+26-fold)
fold increase of frequency of colony formation (clone b3p3-h4 (5E2)): (+50-fold)
fold increase of frequency of colony formation (clone b3p3-h8 (19A)): (+37-fold)
fold increase of frequency of colony formation (clone b3p4-a1 (4A4)): (+25-fold)
fold increase of frequency of colony formation (clone b3p4-a5 (3B)): (+36-fold)
fold increase of frequency of colony formation (clone b3p4-b1 (3A2)): (+44-fold)
fold increase of frequency of colony formation (clone b3p4-b2 (11B1.3)): (+40-fold)
fold increase of frequency of colony formation (clone b3p4-b8 (4C6)): (+27-fold)
fold increase of frequency of colony formation (clone b3p4-b12 (3A1)): (+24-fold)
fold increase of frequency of colony formation (clone b3p4-c1 (17B3)): (+50-fold)
fold increase of frequency of colony formation (clone b3p4-c2 (8C3)): (+50-fold)
fold increase of frequency of colony formation (clone b3p4-c9 (15F2)): (+20-fold)
fold increase of frequency of colony formation (clone b3p4-c12 (17E2)): (+33-fold)
fold increase of frequency of colony formation (clone b3p4-d10 (14E5)): (+54-fold)
fold increase of frequency of colony formation (clone b3p4-d12 (1C3)): (+51-fold)
fold increase of frequency of colony formation (clone b3p4-e1 (2G3)): (+32-fold)
fold increase of frequency of colony formation (clone b3p4-e3 (15D3)): (+41-fold)
fold increase of frequency of colony formation (clone b3p4-e7 (12C1)): (+44-fold)
fold increase of frequency of colony formation (clone b3p4-f2 (4E1)): (+36-fold)
fold increase of frequency of colony formation (clone b3p4-f6 (7E3)): (+26-fold)
fold increase of frequency of colony formation (clone b3p4-f10 (8A4)): (+36-fold)
fold increase of frequency of colony formation (clone b3p4-g3 (1C3)): (+34-fold)
fold increase of frequency of colony formation (clone b3p4-g8 (10C1)): (+34-fold)
fold increase of frequency of colony formation (clone b3p4-g9 (2C2)): (+32-fold)
fold increase of frequency of colony formation (clone b3p4-h11 (8A1.1)): (+33-fold)
survival of mutant ES cells in media containing 2.0 mg/ml G418 (ES cells heterozygous for Xrcc5 entrapment mutation, 4 hours with 0.5 mM methyl-nitrosourea, 0.25 mM hydroxyurea or 100 ng/ml diepoxybutane): enhances the survival
overall extent of LOH induced (single exposure to non-toxic levels): ~1 % of the genome
